Assay results: patent publication US10357477B2, “Anticancer compounds” (REGENTS OF THE UNIVERSITY OF MINNESOTA, priority 2016, dated 2019)

Key:
[1] = Plasma stability assay, human plasma; type: in vitro ADME; details: 37° C., 24 h
Experimental: (§1) The plasma stability assay was performed in triplicate by incubating a compound in normal mouse and human plasma at 37° C. At 0, 1, 3, 6, and 24 h, aliquots of the plasma mixture were taken and quenched with 3 volumes of acetonitrile containing an appropriate internal standard. The samples were then vortexed and centrifuged at 14,000 rpm for 5 min. The supernatants were collected and analyzed by LC-MS/MS to determine the remaining percentage at various time points.
(§2) Quantification and analysis of compounds in biological samples were carried out on an AB Sciex QTrap 5500 mass spectrometer coupled with an Agilent 1260 Infinity HPLC. The chromatographic separation of compounds was achieved using a Phenomenex Kinetex C18 column (50×2.1 mm, 2.6 μm), and MS/MS analysis was conducted using an ESI ion source with MRM detection. The MS/MS detection parameters including declustering potential (DP), entrance potential (EP), collision energy (CE), and collision cell exit potential (CXP) were optimized for each compound.

[2] = Caco-2 permeability assay; type: in vitro ADME; details: human, pH 7.4
Experimental: Cell Culture. The human colon adenocarcinoma cell line Caco-2 was purchased from ATCC (American Type Culture Collection, Manassas, Va.), and was cultured in a humidified atmosphere of 5% CO2 at 37° C. Caco-2 cells were cultured in DMEM with 10% FBS, 1% NEAA, 1% GlutaMax and 1% penicillin and streptomycin solution. The culture medium was changed every other day during cell growth and differentiation. On achieving 80-90% confluence, the cells were rinsed with pre-warm DPBS (pH 7.4) and split using trypsin. The cells were then seeded on membranes of Millipore Millicell-24 cell culture device. The transepithelial electrical resistance (TEER) were assessed to reflect membrane integrity using a Millicells® ERS-2 (Millipore, USA). The Caco-2 cell monolayers were used for transport experiments on day 21 post-seeding with TEER values >500 Ω·cm2. Bidirectional Transport Experiments. Before the transport experiments, the cell monolayer was washed three times with HBSS. Then, the plates were incubated in fresh permeability assay buffer (HBSS containing 10 mM glucose and 20 mM HEPES, pH 7.4) at 37° C. The experiments were conducted by spiking test compounds to either the apical (AP, 0.4 mL) or basolateral side (BL, 0.8 mL), while the receiving chamber contained the corresponding volume of pre-warmed permeability assay buffer. Every experiment was repeated in duplicate, and the plates were incubated in an orbital shaker at 37° C., 50 rpm/min. To assess the drug transport, at the incubation time of 20, 40, 60 and 80 min, aliquot was removed and was immediately replenished with an equal volume of permeability assay buffer. The samples were then subjected to LC/MS/MS analysis. The apparent permeability coefficient was indicated by the absorption rate constant Papp. It could be calculated as PBA (measured in BL to AP direction) or PAB (measured in AP to BL direction), using the equation of Papp=(dQ/dt)/(A×C0). dQ/dt is the rate at which the compound appears in the receiver chamber (nmol/s), A is the surface area of the filter membrane (0.7 cm2) and C0 is the initial concentration in the donor chamber (μM). Efflux ratio (ER) was calculated by the equation of ER=PBA/PAB, where PBA is the Papp value measured in BL to AP direction, and PAB is the Papp value measured in AP to BL direction.

[3] = Microsomal stability assay, human liver microsomes; type: in vitro ADME; details: pH 7.4; human liver microsomes 0.5 mg/mL, 1 mM NADPH, 1 μM compound; read-out: Microsomal Stability t1/2 Human
Experimental: (§3) The in vitro microsomal stability assay was conducted in triplicate in mouse and human liver microsomal systems. In a typical incubation, a compound (typically 1 μM final concentration) was spiked into the reaction mixture containing 0.5 mg/mL of liver microsomal protein and 1 mM of NADPH in 0.1 M potassium phosphate buffer (pH 7.4) at 37° C. At various time points, 1 volume of reaction aliquot was taken and quenched with 3 volumes of acetonitrile with an appropriate internal standard. The samples were then vortexed and centrifuged at 14,000 rpm for 5 min. The supernatants were collected and analyzed by LC-MS/MS to determine the in vitro metabolic half-life (t1/2) and intrinsic clearance (CLint). Verapamil was used as a positive control.
as §2

MIA PaCa-2 cells = test: Cell viability assay (MTT) in MIA PaCa-2 cells; type: cell-based; details: Homo sapiens, antiproliferative activity, 72 h
Experimental: MIA PaCa-2 cells (CRL-1420, ATCC) were maintained in DMEM media supplemented with 10% FBS, 2.5% HS, 1% GlutaMAX, 1% sodium pyruvate, 100 U/mL penicillin, and 100 μg/mL streptomycin. Cell culture media and additives were purchased from Gibco. Cells were plated in 96-well plates at |1−2.5|×10^4 cells per well in the DMEM growth media. One microliter of a 2-fold serially diluted compound solution in DMSO (Sigma) starting at 20 mM (100 μM final concentration) was added to each well. The final volume in each well was 200 μL, yielding a final DMSO concentration of 0.5%. Control wells contained 0.5% DMSO (100% viability) or 25% DMSO (background) and all reactions were done in triplicate. The plate was incubated for 72 h at 37° C. in a 5% CO2/95% air humidified atmosphere.
Measurement of cell viability was carried out using a modified method of Mosmann based on 3-(4,5-dimethylthiazol-2-yl)-2,5-diphenyltetrazolium bromide (MTT, Sigma). MTT solution was prepared fresh at 1 mg/mL in serum-free and phenol red-free RPMI 1640 media. After 200 μL of MTT solution was added to each well, the plate was incubated as described above for 3 h. The MTT solution was removed, and the formazan crystals were solubilized with 200 μL of isopropanol. The plate was read on a SpectraMax i3 spectrophotometer (Molecular Devices) at 570 nm for formazan and 650 nm for background subtraction. EC50 values were calculated by fitting the data in GraphPad Prism software. EC50 values were determined in triplicate.

[4] = Plasma stability assay, mouse plasma; type: in vitro ADME; details: 37° C., 24 h
Experimental: as §1, §2

[5] = Microsomal stability assay, mouse liver microsomes; type: in vitro ADME; details: pH 7.4; mouse liver microsomes 0.5 mg/mL, 1 mM NADPH, 1 μM compound; read-out: Microsomal Stability t1/2 Mouse
Experimental: as §3, §2

Panc-1 cells = test: Cell viability assay (MTT) in Panc-1 cells; type: cell-based; details: Homo sapiens, antiproliferative activity, 72 h
Experimental: Panc-1 cells are maintained in RPMI 1640 (Invitrogen 11875) media supplemented with 10% FBS, 1% Penicillin/Streptomycin and 1% Glutamax-1. Cells were plated in 96-well plates at 25×10^4 cells/ml. After 24 hours, compounds were added at 9, 3× dilutions in triplicate from 100 uM final concentration in the appropriate growth media. Plates were incubated for 72 hours at 37° C. in a 5% CO2/95% air humidified atmosphere after which time the media was removed and MTT was added in RPMI phenol red free media. The MTT was removed after 3 hours and formazan crystals were solubilized with 200 μL of isopropanol. Plates were read on a Molecular Devices SpectraMax i3 spectrophotometer at 570 nm for formazan and 690 nm for background subtraction. EC50 values were calculated by fitting the data in GraphPad Prism software.

Plasma Stability (% remaining, 6 h/24 h) Human [1] | Papp A→B at 80 min ([2]; apical to basolateral) [×10⁻⁶ cm/s] | Papp B→A at 80 min ([2]; basolateral to apical) [×10⁻⁶ cm/s] | half-life at 1 μM [3] [min] | EC50 (MIA PaCa-2 cells) [µM] | Plasma Stability (% remaining, 6 h/24 h) Mouse [4] | half-life at 1 μM [5] [min] | EC50 (Panc-1 cells) [µM] | SMILES
—/100% | 3.58 | 7.17 | 47 | 6.3 | —/96% | 75 |  | CNC(=O)c1cccc(Cn2nc(C)c(NC(=O)c3ccc(COc4ccc(C(F)(F)F)cc4C)cc3)c2C)n1 [Compound E1b, 6-((3,5-Dimethyl-4-(4-((2-methyl-4-(trifluoromethyl)phenoxy)methyl)benzamido)-1H-pyrazol-1-yl)methyl)-N-methylpicolinamide]
—/97% |  |  | 65 | 13 | —/98% | 151 |  | CNC(=O)c1ccnc(Cn2nc(C)c(NC(=O)c3ccc(COc4ccc(C(F)(F)F)cc4)cc3)c2C)c1 [Compound E4a, 2-((3,5-Dimethyl-4-(4-((4-(trifluoromethyl)phenoxy)methyl)benzamido)-1H-pyrazol-1-yl)methyl)-N-methylisonicotinamide]
—/98% |  |  | 57 | 4.9 | —/99% | 126 |  | CNC(=O)c1ccnc(Cn2nc(C)c(NC(=O)c3ccc(COc4ccc(C(F)(F)F)cc4C)cc3)c2C)c1 [Compound E4b, 2-((3,5-Dimethyl-4-(4-((2-methyl-4-(trifluoromethyl)phenoxy)methyl)benzamido)-1H-pyrazol-1-yl)methyl)-N-methylisonicotinamide]
—/94% |  |  | 82 | 8.6 | —/100% | 144 |  | CNC(=O)c1cncc(Cn2nc(C)c(NC(=O)c3ccc(COc4ccc(C(F)(F)F)cc4)cc3)c2C)c1 [Compound E3a, 5-((3,5-Dimethyl-4-(4-((4-(trifluoromethyl)phenoxy)methyl)benzamido)-1H-pyrazol-1-yl)methyl)-N-methylnicotinamide]
 |  |  |  | 6.2 |  |  | 5.2 | CNC(=O)c1cccc(Cn2nc(C)c(NC(=O)c3ccc(COc4ccccc4)cc3)c2C)c1 [Compound A3b, 3-((3,5-Dimethyl-4-(4-(phenoxymethyl)benzamido)-1H-pyrazol-1-yl)methyl)-N-methylbenzamide]
 |  |  |  | 7.7 |  |  | 14 | CNC(=O)c1ccccc1Cn1nc(C)c(NC(=O)c2ccc(COc3ccccc3)cc2)c1C [Compound A3c, 2-((3,5-Dimethyl-4-(4-(phenoxymethyl)benzamido)-1H-pyrazol-1-yl)methyl)-N-methylbenzamide]
 |  |  |  | 6.2 |  |  | 6.2 | CNC(=O)c1cccc(Cn2nc(C)c(NC(=O)c3ccc(COc4cccc(OC)c4)cc3)c2C)c1 [Compound D4b, 3-((4-(4-((3-Methoxyphenoxy)methyl)benzamido)-3,5-dimethyl-1H-pyrazol-1-yl)methyl)-N-methylbenzamide]
 |  |  |  | 5.6 |  |  | 3 | CNC(=O)c1cccc(Cn2nc(C)c(NC(=O)c3ccc(COc4ccccc4F)cc3)c2C)c1 [Compound D6a, 3-((4-(4-((2-Fluorophenoxy)methyl)benzamido)-3,5-dimethyl-1H-pyrazol-1-yl)methyl)-N-methylbenzamide]
 |  |  |  | 10 |  |  | 0.44 | CNC(=O)c1cccc(Cn2nc(C)c(NC(=O)c3ccc(COc4ccccc4C(F)(F)F)cc3)c2C)c1 [Compound D9a, 3-((3,5-Dimethyl-4-(4-((2-(trifluoromethyl)phenoxy)methyl)benzamido)-1H-pyrazol-1-yl)methyl)-N-methylbenzamide]
 |  |  |  | 5.4 |  |  | 0.76 | CNC(=O)c1cccc(Cn2nc(C)c(NC(=O)c3ccc(CCc4ccccc4)cc3)c2C)c1 [Compound C3, 3-((3,5-Dimethyl-4-(4-phenethylbenzamido)-1H-pyrazol-1-yl)methyl)-N-methylbenzamide]
 |  |  |  | 8.9 |  |  | 1.4 | Cc1nn(Cc2cccc(C(=O)NC(C)C)c2)c(C)c1NC(=O)c1ccc(COc2ccccc2)cc1 [Compound A4c, 3-((3,5-Dimethyl-4-(4-(phenoxymethyl)benzamido)-1H-pyrazol-1-yl)methyl)-N-isopropylbenzamide]
—/98% |  |  | 74 | 7.6 | —/100% | 139 |  | CNC(=O)c1cncc(Cn2nc(C)c(NC(=O)c3ccc(COc4ccc(C(F)(F)F)cc4C)cc3)c2C)c1 [Compound E3b, 5-((3,5-Dimethyl-4-(4-((2-methyl-4-(trifluoromethyl)phenoxy)methyl)benzamido)-1H-pyrazol-1-yl)methyl)-N-methylnicotinamide]
 |  |  |  | 12 |  |  | 8.5 | CNC(=O)c1cccc(Cn2nc(C)c(NC(=O)c3ccc(COc4ccccc4C#N)cc3)c2C)c1 [Compound D7a, 3-((4-(4-((2-Cyanophenoxy)methyl)benzamido)-3,5-dimethyl-1H-pyrazol-1-yl)methyl)-N-methylbenzamide]
